In patent US20250313563A1, “GLYCOGEN SYNTHASE KINASE 3 INHIBITORS AND USES THEREOF” (The Broad Institute, Inc., priority 2022, published 2025):
Read-outs that look alike come from different tables or passages of the source.

Columns and labels:
[1] = target: GSK3b (GST-full length GSK3b) (Homo sapiens (Human), UniProt P49841); test: GSK3b TR-FRET kinase assay; format: biochemical
Outline: (§1)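 In this time-resolved FRET format, kinase reactions contained 200 nM biotinylated, S645-phosphorylated glycogen synthase 631-650 peptide and either isoform-specific ATP (2 μM GSK3b, 4 μM GSK3α) or 1 mM ATP. They were quenched with EDTA after 100 min at ambient temperature. Inhibition curves gave IC50 values.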

[2] = target: GSK3α (GST-full length GSK3α) (Homo sapiens (Human), UniProt P49840); test: GSK3α TR-FRET kinase assay; format: biochemical
Outline: as §1

[3] = 1 nM GSK3b, 2 μM ATP, 30 minute preincubation, Table 16, read-out: GSK3-B TR-FRET BIOCHEMICAL (TR-FRET), IC50
[4] = 1 nM GSK3α, 4 μM ATP, 30 minute preincubation, Table 16, read-out: GSK3-A TR-FRET BIOCHEMICAL (TR-FRET), IC50
[5] = read-out: GSK3-B (TR-FRET 1 mM ATP), GMean, IC50, 1 mM ATP, geometric mean
[6] = read-out: GSK3-A (TR-FRET 1 mM ATP), GMean, IC50, 1 mM ATP, geometric mean
[7] = 1 nM GSK3b, 2 μM ATP, 30 minute preincubation, Table 16, read-out: GSK3-B TR-FRET BIOCHEMICAL (TR-FRET)
[8] = 1 nM GSK3α, 4 μM ATP, 30 minute preincubation, Table 16, read-out: GSK3-A TR-FRET BIOCHEMICAL (TR-FRET)
[9] = 1 nM GSK3b, 2 μM ATP, 30 minute preincubation, read-out: GSK3-B TR-FRET BIOCHEMICAL (TR-FRET), IC50
[10] = 1 nM GSK3α, 4 μM ATP, 30 minute preincubation, read-out: GSK3-A TR-FRET BIOCHEMICAL (TR-FRET), IC50

Chain of GSK3b (GST-full length GSK3b) (P49841 whole entry, canonical isoform): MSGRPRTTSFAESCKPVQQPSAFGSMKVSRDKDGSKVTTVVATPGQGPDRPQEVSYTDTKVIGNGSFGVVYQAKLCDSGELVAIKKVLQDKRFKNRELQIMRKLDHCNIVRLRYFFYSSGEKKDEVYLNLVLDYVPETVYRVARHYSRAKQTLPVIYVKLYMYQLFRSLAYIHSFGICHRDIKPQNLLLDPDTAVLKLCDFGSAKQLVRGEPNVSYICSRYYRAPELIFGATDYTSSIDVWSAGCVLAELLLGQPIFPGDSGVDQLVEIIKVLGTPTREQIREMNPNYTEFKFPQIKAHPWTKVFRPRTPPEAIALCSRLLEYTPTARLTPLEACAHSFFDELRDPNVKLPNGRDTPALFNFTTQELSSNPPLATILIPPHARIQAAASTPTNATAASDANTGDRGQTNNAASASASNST
Chain of GSK3α (GST-full length GSK3α) (P49840 whole entry): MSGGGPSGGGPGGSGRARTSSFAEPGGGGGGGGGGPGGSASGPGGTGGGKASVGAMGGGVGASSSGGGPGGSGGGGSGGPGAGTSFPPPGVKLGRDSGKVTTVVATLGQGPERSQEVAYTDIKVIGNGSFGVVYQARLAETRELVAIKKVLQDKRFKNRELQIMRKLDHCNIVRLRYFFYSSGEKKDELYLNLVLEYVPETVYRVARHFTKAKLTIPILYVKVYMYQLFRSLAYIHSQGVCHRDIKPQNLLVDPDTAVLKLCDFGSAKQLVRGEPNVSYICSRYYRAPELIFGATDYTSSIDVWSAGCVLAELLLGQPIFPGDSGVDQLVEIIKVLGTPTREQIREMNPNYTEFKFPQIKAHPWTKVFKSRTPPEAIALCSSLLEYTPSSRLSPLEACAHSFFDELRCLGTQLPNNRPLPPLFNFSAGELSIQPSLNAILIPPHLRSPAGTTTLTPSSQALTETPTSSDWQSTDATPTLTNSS

CCC1(c2cccc(Nc3ncccn3)c2)C2=C(CC(C)(C)CC2=O)Nc2n[nH]cc21 (centres unmarked) [Compound 913334]
IC50 [1, 3]: 100 to 1000 nM | IC50 [2, 4]: ≤ 100 nM

CCC1(c2cccc(-c3ccnc(C)c3C)c2)C2=C(CC(C)(C)CC2=O)Nc2n[nH]cc21 (centres unmarked) [Compound 913347]
IC50 [1, 3]: ≤ 100 nM | IC50 [2, 4]: ≤ 100 nM

CCC1(c2cccc(-c3ccnc(C(F)(F)F)c3)c2)C2=C(CC(C)(C)CC2=O)Nc2n[nH]cc21 (centres unmarked) [Compound 913348]
IC50 [1, 3]: 100 to 1000 nM | IC50 [2, 4]: ≤ 100 nM

CCC1(c2cccc(-c3ccncc3F)c2)C2=C(CC(C)(C)CC2=O)Nc2n[nH]cc21 (centres unmarked) [Compound 913349]
IC50 [1, 3]: ≤ 100 nM | IC50 [2, 4]: ≤ 100 nM

CCC1(c2cccc(-c3ccnc(C(F)(F)F)c3)c2)C2=C(CC(C)(C)CC2=O)Nc2n[nH]cc21 (centres unmarked) [Compound 913350]
IC50 [1, 3]: ≤ 100 nM | IC50 [1, 5]: 100 to 1000 nM | IC50 [2, 4]: 100 to 1000 nM | IC50 [2, 6]: ≤ 100 nM

CCC1(c2cccc(-c3ccncc3C)c2)C2=C(CC(C)(C)CC2=O)Nc2n[nH]cc21 (centres unmarked) [Compound 913351]
IC50 [1, 3]: ≤ 100 nM | IC50 [2, 4]: ≤ 100 nM

CCC1(c2cccc(-c3ccnc(O)c3)c2)C2=C(CC(C)(C)CC2=O)Nc2n[nH]cc21 (centres unmarked) [Compound 913352]
IC50 [1, 3]: ≤ 100 nM | IC50 [2, 4]: ≤ 100 nM

CCC1(c2cccc(C(F)(F)F)c2)C2=C(CCCNC2=O)Nc2n[nH]cc21 (centres unmarked) [Compound 913355]
IC50 [1, 7]: > 5000 nM | IC50 [2, 8]: > 5000 nM

CC1(C)CC(=O)C2=C(C1)Nc1n[nH]cc1C21CCC(S(C)(=O)=O)CC1 (centres unmarked) [Compound 913356]
IC50 [1, 7]: ≤ 100 nM | IC50 [2, 8]: ≤ 100 nM

CCC1(c2cccc(-c3ccnc(C)c3)c2)C2=C(CC(C)NC2=O)Nc2n[nH]cc21 (centres unmarked) [Compound 913357]
IC50 [1, 9]: 1000 to 5000 nM | IC50 [2, 10]: 100 to 1000 nM

CCC1(c2cccc(Br)c2)C2=C(CC(C)(C)NC2=O)Nc2n[nH]cc21 (centres unmarked) [Compound 913439]
IC50 [1, 9]: 100 to 1000 nM | IC50 [2, 10]: ≤ 100 nM

O=C1CC2(CSC2)CC2=C1C1(CCCC1)c1c[nH]nc1N2 [Compound 913441]
IC50 [1, 7]: 100 to 1000 nM | IC50 [2, 8]: 100 to 1000 nM

CC1(C)CC(=O)C2=C(C1)Nc1n[nH]cc1[C@@]21CO[C@@H](C2CC2)C1 [Compound 913442]
IC50 [1, 7]: 100 to 1000 nM | IC50 [2, 8]: 100 to 1000 nM

CC[C@@]1(c2cccc(C(F)(F)F)c2)C2=C(Nc3n[nH]cc31)C(C)(C)NC2=O [Compound 913451]
IC50 [1, 7]: 100 to 1000 nM | IC50 [2, 8]: ≤ 100 nM

CC[C@@]1(c2cccc(C(F)(F)F)c2)C2=C(CC3(CCC3)NC2=O)Nc2n[nH]cc21 [Compound 914308]
IC50 [1, 9]: ≤ 100 nM | IC50 [1, 5]: 1000 to 5000 nM | IC50 [2, 10]: ≤ 100 nM | IC50 [2, 6]: 100 to 1000 nM

CCC1(c2cccc(-c3ccnc(C)c3)c2)C2=C(CC(C)(C)NC2=O)Nc2n[nH]cc21 (centres unmarked) [Compound 914930]
IC50 [1, 9]: 1000 to 5000 nM | IC50 [2, 10]: ≤ 100 nM

CCC1(c2cccc(-c3ccnn3C)c2)C2=C(CC(C)(C)NC2=O)Nc2n[nH]cc21 (centres unmarked) [Compound 914971]
IC50 [1, 9]: 100 to 1000 nM | IC50 [2, 10]: ≤ 100 nM

CC[C@@]1(c2cccc(N(C)c3cnccn3)c2)C2=C(CC(C)(C)CC2=O)Nc2n[nH]cc21 [Compound 915316]
IC50 [1, 3]: ≤ 100 nM | IC50 [2, 4]: ≤ 100 nM

CC[C@]1(c2cccc(N(C)c3cnccn3)c2)C2=C(CC(C)(C)CC2=O)Nc2n[nH]cc21 [Compound 915340]
IC50 [1, 3]: 1000 to 5000 nM | IC50 [2, 4]: 100 to 1000 nM

CC[C@@]1(c2cccc(N(C)c3cncnc3)c2)C2=C(CC(C)(C)CC2=O)Nc2n[nH]cc21 [Compound 915400]
IC50 [1, 3]: ≤ 100 nM | IC50 [2, 4]: ≤ 100 nM

CC[C@]1(c2cccc(N(C)c3cncnc3)c2)C2=C(CC(C)(C)NC2=O)Nc2n[nH]cc21 [Compound 915401]
IC50 [1, 3]: 1000 to 5000 nM | IC50 [2, 4]: 100 to 1000 nM

CCC1(c2cccc(N3CCCc4ncccc43)c2)C2=C(CC(C)(C)CC2=O)Nc2n[nH]cc21 (centres unmarked) [Compound 917076]
IC50 [1, 3]: ≤ 100 nM | IC50 [2, 4]: ≤ 100 nM

CCC1(c2cccc(N3CCCc4ncccc43)c2)C2=C(CC(C)(C)CC2=O)Nc2n[nH]cc21 (centres unmarked) [Compound 917079]
IC50 [1, 3]: 1000 to 5000 nM | IC50 [2, 4]: 100 to 1000 nM

CC1(C)CC(=O)C2=C(C1)Nc1n[nH]cc1C21CC(c2ccccc2)C1 (centres unmarked) [Compound 917081]
IC50 [1, 7]: ≤ 100 nM | IC50 [2, 8]: ≤ 100 nM

CC1(C)CC(=O)C2=C(C1)Nc1n[nH]cc1C21CC(c2ccccc2)C1 (centres unmarked) [Compound 917082]
IC50 [1, 7]: ≤ 100 nM | IC50 [2, 8]: ≤ 100 nM

CCC1(c2cccc(N(c3cccnc3)C(C)C)c2)C2=C(CC(C)(C)CC2=O)Nc2n[nH]cc21 (centres unmarked) [Compound 917086]
IC50 [1, 5]: 1000 to 5000 nM | IC50 [2, 6]: 100 to 1000 nM
